Measurements as given in patent publication US9376442B2, “Methylpyrrolopyrimidinecarboxamides” (Takeda GmbH, priority 2009, dated 2016).

The compounds below were run against T1, PDE5A1 (Homo sapiens, UniProt O76074) (assay: Inhibition of type 5 phosphodiesterase (PDE5) activity, modified SPA test with human platelet lysate). Conditions: 0.5 μM cGMP, read-out: PDE5A1 inhibitory values [measured as −log IC50 (mol/l)] (converted).
T1 construct: from tissue; host or cells: human platelets from fresh donor blood (10,000 x g supernatant of sonicated lysate)
Assay type: biochemical
Summary of the method: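 Scintillation proximity assay with [3H]cGMP tracer at 0.5 μM total cGMP, stopped after 15 min with beads containing IBMX. PDE3 and PDE2 activities suppressed with motapizone (1 μM) and a PDE2 inhibitor (10 nM). Human platelet supernatant served as the enzyme, with compound preincubated 5 min at 37° C; IC50 values from concentration-effect curves.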

Structure (SMILES) | IC50 [nM]
CCOc1ccc(C(F)(F)F)cc1-c1ncnc2c(C(=O)NC3CCN(C(C)=O)CC3)c(C)[nH]c12 [Example E99, N-(1-acetylpiperidin-4-yl)-4-[2-ethoxy-5-(trifluoromethyl)phenyl]-6-methyl-5H-pyrrolo[3,2-d]pyrimidine-7-carboxamide] | < 1
CC(=O)N[C@H]1CC[C@@H](NC(=O)c2c(C)[nH]c3c(-c4c(OCC5CC5)ccc5c4OCO5)ncnc23)CC1 [Example E9, N-(cis-4-acetamidocyclohexyl)-4-[5-(cyclopropylmethoxy)-1,3-benzodioxol-4-yl]-6-methyl-5H-pyrrolo[3,2-d]pyrimidine-7-carboxamide] | < 1
COc1cc(OCC2CC2)c(-c2ncnc3c(C(=O)N[C@H]4CC[C@@H](NC(C)=O)CC4)c(C)[nH]c23)cc1F [Example E138, N-(cis-4-Acetamidocyclohexyl)-4-[2-(cyclopropylmethoxy)-5-fluoro-4-methoxyphenyl]-6-methyl-5H-pyrrolo[3,2-d]pyrimidine-7-carboxamide] | < 1
CCC(=O)N1CC[C@@H](NC(=O)c2c(C)[nH]c3c(-c4c(OCC5CC5)ccc5c4OCO5)ncnc23)C1 [Example E14, 4-[5-(Cyclopropylmethoxy)-1,3-benzodioxol-4-yl]-6-methyl-N-[(3R)-1-propionylpyrrolidin-3-yl]-5H-pyrrolo[3,2-d]pyrimidine-7-carboxamide] | < 1
CCOC(=O)N1CCC(NC(=O)c2c(C)[nH]c3c(-c4c(OCC5CC5)ccc5c4OCO5)ncnc23)CC1 [Example E4, Ethyl 4-[({4-[5-(cyclopropylmethoxy)-1,3-benzodioxol-4-yl]-6-methyl-5H-pyrrolo[3,2-d]pyrimidin-7-yl}carbonyl)amino]piperidine-1-carboxylate] | < 1
COCC(=O)N1C[C@@H](O)[C@H](NC(=O)c2c(C)[nH]c3c(-c4c(OCC5CC5)ccc5c4OCO5)ncnc23)C1 (relative stereo) [Example E18, 4-[5-(Cyclopropylmethoxy)-1,3-benzodioxol-4-yl]-N-[(3R*,4R*)-4-hydroxy-1-(methoxyacetyl)pyrrolidin-3-yl]-6-methyl-5H-pyrrolo[3,2-d]pyrimidine-7-carboxamide] | < 1
CCOC(=O)N[C@H]1CC[C@@H](NC(=O)c2c(C)[nH]c3c(-c4c(OCC5CC5)ccc5c4OCO5)ncnc23)CC1 [Example E12, Ethyl {cis-4-[({4-[5-(cyclopropylmethoxy)-1,3-benzodioxol-4-yl]-6-methyl-5H-pyrrolo[3,2-d]pyrimidin-7-yl}carbonyl)amino]cyclohexyl}carbamate] | < 1
COc1ccc(-c2ncnc3c(C(=O)N[C@@H]4CN(C(C)=O)C[C@H]4O)c(C)[nH]c23)c(OCC2CC2)c1 (relative stereo) [Example E63, N-[(3R*,4R*)-1-acetyl-4-hydroxypyrrolidin-3-yl]-4-[2-(cyclopropylmethoxy)-4-methoxyphenyl]-6-methyl-5H-pyrrolo[3,2-d]pyrimidine-7-carboxamide] | < 1
COCC(=O)N1CCC(NC(=O)c2c(C)[nH]c3c(-c4cc(C)c(F)cc4OCC4CC4)ncnc23)CC1 [Example E121, 4-[2-(Cyclopropylmethoxy)-4-fluoro-5-methylphenyl]-N-[1-(methoxyacetyl)piperidin-4-yl]-6-methyl-5H-pyrrolo[3,2-d]pyrimidine-7-carboxamide] | < 1
COCC(=O)N1CC[C@@H](NC(=O)c2c(C)[nH]c3c(-c4cc(F)ccc4OCC4CC4)ncnc23)C1 [Example E48, 4-[2-(Cyclopropylmethoxy)-5-fluorophenyl]-N-[(3R)-1-(methoxyacetyl)pyrrolidin-3-yl]-6-methyl-5H-pyrrolo[3,2-d]pyrimidine-7-carboxamide] | 1 to 10
CC(=O)N1C[C@@H](O)[C@H](NC(=O)c2c(C)[nH]c3c(-c4c(OCC5CC5)ccc5c4OCO5)ncnc23)C1 (relative stereo) [Example E16, N-[(3R*,4R*)-1-acetyl-4-hydroxypyrrolidin-3-yl]-4-[5-(cyclopropylmethoxy)-1,3-benzodioxol-4-yl]-6-methyl-5H-pyrrolo[3,2-d]pyrimidine-7-carboxamide] | < 1
CC(=O)N[C@H]1CC[C@H](NC(=O)c2c(C)[nH]c3c(-c4cc(C)c(F)cc4OCC4CC4)ncnc23)CC1 [Example E122, N-[trans-4-(Acetylamino)cyclohexyl]-4-[2-(cyclopropylmethoxy)-4-fluoro-5-methylphenyl]-6-methyl-5H-pyrrolo[3,2-d]pyrimidine-7-carboxamide] | < 1
CC(=O)N1CC[C@H](NC(=O)c2c(C)[nH]c3c(-c4ccc(F)cc4OCC4CC4)ncnc23)[C@@H](O)C1 (relative stereo) [Example E34, N-[(3S*,4S*)-1-acetyl-3-hydroxypiperidin-4-yl]-4-[2-(cyclopropylmethoxy)-4-fluorophenyl]-6-methyl-5H-pyrrolo[3,2-d]pyrimidine-7-carboxamide] | < 1
CCC(=O)N1CCC(NC(=O)c2c(C)[nH]c3c(-c4ccc(F)cc4OCC4CC4)ncnc23)CC1 [Example E20, 4-[2-(Cyclopropylmethoxy)-4-fluorophenyl]-6-methyl-N-(1-propionylpiperidin-4-yl)-5H-pyrrolo[3,2-d]pyrimidine-7-carboxamide] | < 1

Further lines, results first:

IC50 [nM] | Structure (SMILES)
< 1 | Cc1[nH]c2c(-c3c(OCC4CC4)ccc4c3OCO4)ncnc2c1C(=O)NC1CN(C(=O)C(C)O)CC1O (mixture of isomers) [Example F10, Diastereomeric mixture of 4-[5-(Cyclopropylmethoxy)-1,3-benzodioxol-4-yl]-N-{(3R,4R)-4-hydroxy-1-[(2S)-2-hydroxypropanoyl]pyrrolidin-3-yl}-6-methyl-5H-pyrrolo[3,2-d]pyrimidine-7-carboxamide and 4-[5-(cyclopropylmethoxy)-1,3-benzodioxol-4-yl]N-{(3S,4S)-4-hydroxy-1-[(2S)-2-hydroxypropanoyl]pyrrolidin-3-yl}-6-methyl-5H-pyrrolo[3,2-d]pyrimidine-7-carboxamide]
< 1 | COc1cc(-c2nc(C)nc3c(C(=O)NC4CCN(C(=O)[C@H](C)O)CC4)c(C)[nH]c23)c(OCC2CC2)cc1F [Example F110, 4-[2-(Cyclopropylmethoxy)-4-fluoro-5-methoxyphenyl]-N-{1-[(2S)-2-hydroxypropanoyl]piperidin-4-yl}-2,6-dimethyl-5H-pyrrolo[3,2-d]pyrimidine-7-carboxamide]
< 1 | Cc1[nH]c2c(-c3c(OCC4CC4)ccc4c3OCO4)ncnc2c1C(=O)NC1CCN(C(=O)CO)CC1 [Example F1, 4-[5-(Cyclopropylmethoxy)-1,3-benzodioxol-4-yl]-N-(1-glycoloylpiperidin-4-yl)-6-methyl-5H-pyrrolo[3,2-d]pyrimidine-7-carboxamide]
< 1 | COc1ccc(OCC2CC2)c(-c2ncnc3c(C(=O)N[C@@H]4CCN(C(=O)CO)C4)c(C)[nH]c23)c1 [Example F47, 4-[2-(cyclopropylmethoxy)-5-methoxyphenyl]-N-[(3R)-1-glycoloylpyrrolidin-3-yl]-6-methyl-5H-pyrrolo[3,2-d]pyrimidine-7-carboxamide]
< 1 | COc1cc(-c2nc(C)nc3c(C(=O)NC4CCN(C(=O)CO)CC4)c(C)[nH]c23)c(OCC2CC2)cc1F [Example F109, 4-[2-(Cyclopropylmethoxy)-4-fluoro-5-methoxyphenyl]-N-[1-(hydroxyacetyl)piperidin-4-yl]-2,6-dimethyl-5H-pyrrolo[3,2-d]pyrimidine-7-carboxamide]
< 1 | COc1cc(OCC2CC2)c(-c2ncnc3c(C(=O)N[C@@H]4CN(C(=O)[C@H](C)O)C[C@H]4O)c(C)[nH]c23)cc1F (relative stereo) [Example F118, 4-[2-(Cyclopropylmethoxy)-5-fluoro-4-methoxyphenyl]-N-{(3R*,4R*)-4-hydroxy-1-[(2S)-2-hydroxypropanoyl]pyrrolidin-3-yl}-6-methyl-5H-pyrrolo[3,2-d]pyrimidine-7-carboxamide]
1 to 10 | COc1ccc(OCC2CC2)c(-c2ncnc3c(C(=O)NC4CN(C(=O)C(C)O)CC4O)c(C)[nH]c23)c1 (mixture of isomers) [Example F120, 4-[2-(Cyclopropylmethoxy)-5-methoxyphenyl]-N-{(31R*,4R*)-4-hydroxy-1-[(2S)-2-hydroxypropanoyl]pyrrolidin-3-yl}-6-methyl-5H-pyrrolo[3,2-d]pyrimidine-7-carboxamide]
< 1 | COc1ccc(-c2ncnc3c(C(=O)NC4CN(C(=O)C(C)O)CC4O)c(C)[nH]c23)c(OCC2CC2)c1 (mixture of isomers) [Example F40, Diastereomeric mixture of 4-[2-(cyclopropylmethoxy)-4-methoxyphenyl]-N{(3R,4R)-4-hydroxy-1-[(2S)-2-hydroxypropanoyl]pyrrolidin-3-yl}-6-methyl-5H-pyrrolo[3,2-d]pyrimidine-7-carboxamide and 4-[2-(cyclopropylmethoxy)-4-methoxyphenyl]-N-{(3S,4S)-4-hydroxy-1-[(2S)-2-hydroxypropanoyl]pyrrolidin-3-yl}-6-methyl-5H-pyrrolo[3,2-d]pyrimidine-7-carboxamide]
< 1 | Cc1[nH]c2c(-c3c(OCC4CC4)ccc4c3OCO4)ncnc2c1C(=O)N[C@@H]1CCN(C(=O)CO)C1 [Example F7, 4-[5-(Cyclopropylmethoxy)-1,3-benzodioxol-4-yl]-N-[(3R)-1-glycoloylpyrrolidin-3-yl]-6-methyl-5H-pyrrolo[3,2-d]pyrimidine-7-carboxamide]
< 1 | Cc1[nH]c2c(-c3ccc(F)cc3OCC3CC3)ncnc2c1C(=O)N[C@H]1CC[C@@H](NC(=O)[C@H](C)O)CC1 [Example F16, 4-[2-(Cyclopropylmethoxy)-4-fluorophenyl]-N-(cis-4-{[(2S)-2-hydroxypropanoyl]amino}cyclohexyl)-6-methyl-5H-pyrrolo[3,2-d]pyrimidine-7-carboxamide]
